Among the test systems are BT-549 breast; HL-60(TB) leukemia; HOP-62 NSCLC; HT29 colon; M14 melanoma; MOLT-4 leukemia; OVCAR-8 ovarian; UACC-257 melanoma.
Holding throughout (experiment): NCI tumour cell line growth inhibition, 48 h

Experimental findings from PubChem BioAssay (NCI) are described below.

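Interpolation was linear, between the two tested concentrations surrounding the appropriate level; five concentrations were tested over 48 hours in 96-well plates. The concentration for 50% growth inhibition is given as GI50. TGI is the concentration that stops growth completely.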

`O=C(c1ccco1)c1c(C(F)(F)F)n([O-])c2ccccc2[n+]1=O`: the GI50 was 1.31 µM with BT-549 breast; 0.175 µM in the assay with HL-60(TB) leukemia; 0.949 µM in the assay on HOP-62 NSCLC; 4.2 µM in the assay on HT29 colon; 0.613 µM in the assay with M14 melanoma; 0.102 µM with MOLT-4 leukemia. The GI50 was 1.23 µM in the assay on OVCAR-8 ovarian and 4.32 µM in the assay with UACC-257 melanoma. Besides, the TGI in the assay on BT-549 breast came out at 3.81 µM; with HL-60(TB) leukemia it was 1.42 µM; with HOP-62 NSCLC, 4.34 µM; in the assay with HT29 colon, 50 µM; in the assay on M14 melanoma it was 1.91 µM; with MOLT-4 leukemia it was 0.564 µM. The TGI with OVCAR-8 ovarian worked out at 22.5 µM; with UACC-257 melanoma, 14.7 µM.

Turning to `COc1ccccc1/C=N\N=C(N/N=C/c1ccccc1OC)N/N=C/c1ccccc1OC`, the GI50 in the assay with BT-549 breast is 2.88 µM; with HL-60(TB) leukemia it was 3.09 µM; in the assay on HOP-62 NSCLC it was 2.91 µM; in the assay on HT29 colon, 3.87 µM; with M14 melanoma, 2.99 µM; in the assay with MOLT-4 leukemia it was 3.04 µM. For the same molecule, the GI50 with OVCAR-8 ovarian was 3.23 µM; in the assay with UACC-257 melanoma, 3.12 µM. The TGI was 9.83 µM in the assay on BT-549 breast; 9.26 µM with HL-60(TB) leukemia; 13.4 µM in the assay on HOP-62 NSCLC; above 100 µM in the assay with HT29 colon; 9.96 µM in the assay on M14 melanoma; 12.1 µM in the assay on MOLT-4 leukemia. The TGI in the assay on OVCAR-8 ovarian amounted to 14.5 µM; with UACC-257 melanoma, 10.2 µM.

As for `C=CC(=O)N[C@H]1CCOC[C@H]1Nc1ncc2cc(-c3c(Cl)c(OC)cc(OC)c3Cl)ccc2n1`, the GI50 is 2.86 µM with BT-549 breast; 12 µM in the assay with HL-60(TB) leukemia; 43 µM in the assay on HOP-62 NSCLC; 13.2 µM in the assay with HT29 colon; 11.8 µM in the assay with M14 melanoma; 6.43 µM in the assay with MOLT-4 leukemia. The values for the GI50 in the assay with OVCAR-8 ovarian and in the assay on UACC-257 melanoma were 39.3 µM and 32.3 µM, respectively. For the same molecule, the TGI was 15.8 µM in the assay on BT-549 breast; 64.5 µM with HL-60(TB) leukemia; above 100 µM in the assay on HOP-62 NSCLC; above 100 µM in the assay with HT29 colon; 40.2 µM in the assay on M14 melanoma; above 100 µM in the assay with MOLT-4 leukemia. Also, the TGI with OVCAR-8 ovarian and in the assay on UACC-257 melanoma was above 100 µM in each case.

`O=C(O)c1cc2cc(OCc3ccccc3)c(OCc3ccccc3)cc2[nH]1`: the GI50 in the assay with BT-549 breast is 18.5 µM; in the assay on HL-60(TB) leukemia, 22.9 µM; in the assay on HOP-62 NSCLC, 16.4 µM; in the assay on HT29 colon, 29.5 µM; in the assay with M14 melanoma, 24.2 µM; in the assay with MOLT-4 leukemia it was 25 µM. The GI50 with OVCAR-8 ovarian is 26.9 µM; in the assay with UACC-257 melanoma, 22.2 µM. The TGI with BT-549 breast was 35.6 µM; with HL-60(TB) leukemia it was above 100 µM; with HOP-62 NSCLC, 52.4 µM; in the assay on HT29 colon, 59.6 µM; in the assay with M14 melanoma, 60.8 µM; with MOLT-4 leukemia, above 100 µM. The TGI was determined as 95.9 µM in the assay with OVCAR-8 ovarian and 62.9 µM in the assay on UACC-257 melanoma.

With `c1cn2cc(-c3ccc4cn[nH]c4c3)nc(Nc3ccc(N4CCOCC4)cc3)c2n1`, the GI50 in the assay with BT-549 breast is 14.5 µM; in the assay with HL-60(TB) leukemia, above 100 µM; in the assay with HOP-62 NSCLC, 3.81 µM; in the assay on HT29 colon, 9.01 µM; with M14 melanoma it was 15.1 µM; in the assay on MOLT-4 leukemia it was 96.9 µM. For the same molecule, the GI50 was 4.87 µM in the assay on OVCAR-8 ovarian and 16.4 µM in the assay on UACC-257 melanoma. Besides, the TGI with BT-549 breast is 48.1 µM; in the assay with HL-60(TB) leukemia, above 100 µM; in the assay with HOP-62 NSCLC, 16.1 µM; in the assay on HT29 colon, 37 µM; in the assay on M14 melanoma it was 62.3 µM; in the assay on MOLT-4 leukemia, above 100 µM. The TGI is 21.8 µM with OVCAR-8 ovarian and 44.8 µM in the assay on UACC-257 melanoma.

Consider `COc1cc(/C=C2\CN(C)C/C(=C\c3cc(CN4CCCCC4)c(O)c(OC)c3)C2=O)cc(CN2CCCCC2)c1O`, for which the GI50 with BT-549 breast is 4.61 µM; with HL-60(TB) leukemia, 2.8 µM; in the assay with HOP-62 NSCLC, 4.28 µM; in the assay with HT29 colon it was 2.43 µM; with M14 melanoma, 3.02 µM; in the assay on MOLT-4 leukemia, 2.95 µM. Further, the results for the GI50 in the assay on OVCAR-8 ovarian and with UACC-257 melanoma were 3.12 µM and 7.99 µM, respectively. In addition, the TGI was found to be 16.3 µM in the assay on BT-549 breast; 7.47 µM with HL-60(TB) leukemia; 18.4 µM with HOP-62 NSCLC; 6.42 µM with HT29 colon; 10.8 µM with M14 melanoma; 10.7 µM with MOLT-4 leukemia. The TGI with OVCAR-8 ovarian is above 100 µM; in the assay with UACC-257 melanoma it was 22 µM.

With `CC(=O)OC1CC2(O)C3CCC4CC(O)CCC4(C)C3CCC2(C)C1C1=CC(=O)OC1` (centres undefined), the TGI with BT-549 breast is 0.0895 µM; with HL-60(TB) leukemia, 0.237 µM; in the assay with HOP-62 NSCLC it was 0.178 µM; in the assay with HT29 colon, 0.779 µM; in the assay with M14 melanoma it was 0.367 µM; in the assay on MOLT-4 leukemia, 0.0593 µM. The values for the TGI with OVCAR-8 ovarian and with UACC-257 melanoma were 0.272 µM and 0.773 µM, respectively.
